Consider 1 compound from article PMC10111022, “Comparison of pharmacological inhibitors of lysine-specific demethylase 1 in glioblastoma stem cells reveals inhibitor-specific efficacy profiles” (Frontiers in Neurology, 2023).

Bounds are passed on as bounds.

The test system of data set [1] is MDA-GSC311, MDA-GSC20, MDA-GSC23, MDA-GSC8-11. Kind of data set: Colony (neurosphere) formation assay. In kind it is cell-based, Human. The conditions noted are these: three of the four cell lines; 200-400 μM, 3 weeks. As for the experimental part: Colony formation assay was performed on MDA-GSC 311, MDA-GSC 20, MDA-GSC 23, and MDA-GSC 8–11. Cells were plated in triplicate into clear, flat-bottom 96-well plates at 3 cells/well into 100 μL of media. MDA-GSCs were treated with 100 μL of GSK-LSD1 and allowed to grow for 3 weeks at 37°C before scoring. The final concentration of GSK-LSD1 in each well was determined using the IC50 in each cell line (MDA-GSC 311 at 200 μM, MDA-GSC 20 at 300 μM, MDA-GSC 23 at 200 μM, MDA-GSC 8–11 at 400 μM). Clonogenicity was scored using the Cell3iMager (Screen Life Science; Elk Grove Village, IL) to count the number of wells with colony formation as positive and wells without colony formation as negative.

A further data set concerns MDA-GSC 17. As to the kind of experiment: Cell viability dose response (IC50), MDA-GSC 17. It is filed as cell-based. The settings on record: Homo sapiens, mean of three independent experiments. As for the experimental part:
(§1) MDA-GSCs were plated at 50,000 cells/well into 12-well plates at and allowed to grow for 5 days until neurospheres were formed. The cells were then treated with either TCP, GSK-LSD1, or RN-1 at various concentrations for 5 days. Next, the cells were collected and neurospheres were dissociated with Accutase (BioLegend; San Diego, CA). Cell viability was determined using a trypan dye exclusion assay and read with the Vi-Cell XR Cell Viability Analyzer (Beckman Coulter; Brea, CA). NHAs were plated at 50,000 cells/well into 12-well plates and allowed to adhere overnight. The following day, NHAs were treated with the LSD1 inhibitors. After 5 days, the cells were detached using TrypLE and assessed with the trypan blue dye exclusion assay.
(§2) The alamarBlue cell viability (Bio-Rad; Hercules, CA) was performed on the MDA-GSCs according to the manufacturer’s protocol. The cells were plated at 5,000 cell/well into a 96-well plate and allowed to grow for 5 days. After 5 days, the alamarBlue reagent was added and fluorescence was measured with the Synergy 2 (BioTek Instruments; Winooski, VT) plate reader according to the manufacturer’s protocol.

In another data set the test system is human T cells. Also on record: method as in PMID 32166329. The conditions noted are these: direct effect on human T cells; cited from earlier work.
Data set [2] can be described thus: Complete blood count at day 50 in xenograft mice. In kind it is in vivo, athymic nude mice. As for the experimental part:
Once confirmation of intracranial tumor engraftment at 7 days post-engraftment, the mice were equally randomized into groups to receive either GSK-LSD1 or the vehicle control. The mice received GSK-LSD1 1 mg/kg diluted in DMSO and PBS (5 and 95%, respectively) via intraperitoneal injection (200 μL/mouse) while the control mice received the untreated vehicle in parallel. In accordance with the approved IACUC protocol (No: 638-RN03) at MD Anderson Cancer Center, treatment continued until the mice succumbed to tumor burden and were found in a moribund condition as determined by neurological impairment (hydrocephalus, seizures, inactivity, and/or ataxia) or morbidity (hunched posture or weight loss). At this time mice were euthanized by both carbon dioxide exposure and cervical dislocation. Flow cytometric characterization of immune cell subsets was carried out in blood samples obtained from mice (four control mice and six GSK-LSD1 mice) in each group at day 50 via cardiac puncture and the sample was processed using Ficoll (GE Healthcare; Chicago, IL) centrifugation to collect the peripheral blood mononuclear cells (PBMCs). Next, PBMCs were stained with the Ghost Dye Violet (Tonbo; San Diego, CA) and then incubated with antibodies at 4°C for 25 min before analysis. The antibodies anti-NKG2D APC (Biolegend #320807), CD16-PE-Cy7 (ThermoFisher #25–0168-42), CD56-PE (BD Biosciences #345812), anti-CD3-FITC (Biolegend; #100305), CD4-PerCP (ThermoFisher #MHCD0431), anti-CD8-ACP-Cy7 (Biolegend #344713), and anti-SLAMF7-PE (eBioscience #12–2,229-42) were used in concentrations recommended per manufacturer’s instruction. Samples were washed and resuspended in FACS buffer for analysis on a Fortessa flow cytometer (BD Biosciences; Haryana, India).
Given the effect on tumor regression required almost 2 months of treatment, we sought to determine if any hematological toxicities were present from the prolonged exposure to LSD1 inhibition. At day 50, a subset of mice from each group were sacrificed and blood was collected for evaluation with a Complete Blood Count (CBC) to compare different populations of blood cells. […] However, the platelet count in the GSK-LSD1 receiving mice is higher compared to the control and may be secondary to the underlying tumor burden (Figure 5F). The WBC differential further confirmed the absence of hematological toxicity with no difference between the GSK-LSD1 and the control group in any of the individual cell types (Figure 5G). […] In parallel, the peripheral blood mononuclear cells (PBMCs) were also isolated and probed to assess the effect of GSK-LSD1. Prior studies of LSD1 inhibition via pharmacological inhibitors prompted the assessment of GSK-LSD1 effect on different subpopulations of natural killer (NK) cells and T-cells ([26], [30]).

A further data set deals with MDA-GSC20. Kind of data set: qPCR of resistance-related genes, MDA-GSC20. It is filed as cell-based, Human. The conditions noted are these: MDA-GSC20 (resistant). As for the experimental part: (§3) Total RNA was extracted using RNeasy Plus Mini Kit (Qiagen; Hilden, Germany) following the manufacturer’s protocol. cDNA was synthesized with the iScript cDNA synthesis kit (Bio-Rad; Hercules, CA), qPCR was performed using Forget-Me-Not EvaGreen qPCR kit (Biotium; Fremont, CA), and samples were analyzed with the LightCycler96 (Roche; Basel, Switzerland). Cq values were normalized to PPIA and reported as relative fold change from untreated control.
For orientation: Quantitative PCR measures a nucleic acid by following its amplification.

The next data set relates to MDA-GSC 262. Kind of data set: Cell viability dose response (IC50), MDA-GSC 262. It is filed as cell-based. The settings on record: Homo sapiens, mean of three independent experiments. As for the experimental part:
as §1, §2

The test system of the next data set is MDA-GSC17. Kind of data set: qPCR of resistance-related genes, MDA-GSC17. It is filed as cell-based, Human. The conditions noted are these: MDA-GSC17 (sensitive). As for the experimental part: as §3
The next data set has as its system MDA-GSC 7–2. As to the kind of experiment: Cell viability dose response (IC50), MDA-GSC 7–2. In kind it is cell-based. The conditions noted are these: Homo sapiens, mean of three independent experiments. As for the experimental part:
as §1, §2

The subject of the next data set is MDA-GSC 311. As to the kind of experiment: Cell viability dose response (IC50), MDA-GSC 311. The conditions noted are these: Homo sapiens, mean of three independent experiments. It is filed as cell-based. As for the experimental part: as §1, §2
The subject of the next data set is MDA-GSC8-11. Kind of data set: qPCR of resistance-related genes, MDA-GSC8-11. In kind it is cell-based, Human. The settings on record: MDA-GSC8-11 (resistant). As for the experimental part: as §3
Another data set concerns MDA-GSC 20. Kind of data set: Cell viability dose response (IC50), MDA-GSC 20. In kind it is cell-based. The settings on record: Homo sapiens, mean of three independent experiments. As for the experimental part: as §1, §2
For a further data set, the system named is MDA-GSC 7–11. Kind of data set: Cell viability dose response (IC50), MDA-GSC 7–11. In kind it is cell-based. The settings on record: Homo sapiens, mean of three independent experiments. As for the experimental part: as §1, §2
The next data set concerns MDA-GSC lines. Kind of data set: Cell viability across the panel of nine MDA-GSC lines. It is filed as cell-based, Human. The conditions noted are these: many/several MDA-GSC lines, dose response curves Figure 2. As for the experimental part:
as §1, §2

Broadly, the IC50 is the point on the concentration scale where inhibition reaches its midpoint. For the compound `c1ccc([C@@H]2C[C@H]2NC2CCNCC2)cc1` [GSK-LSD1], the “capacity to form neurospheres from single cells” value in [1] is recorded as “reduced capacity to form neurospheres”. In addition, the concentration for half-maximal inhibition (IC50) was 253 µM in the data set with MDA-GSC 17; above 750 µM in the data set on MDA-GSC 262; 518 µM in the data set with MDA-GSC 7–2; above 750 µM with MDA-GSC 311; above 750 µM with MDA-GSC 20; 606 µM with MDA-GSC 7–11. The “human T cell growth” value with human T cells is on record as “minimally impacted”. Moreover, the “leukopenia or erythropenia (CBC)” value in [2] (day 50, 1 mg/kg intraperitoneal, vs untreated mice) is recorded as “no evidence of leukopenia or erythropenia”. In addition, the platelet count entry in [2] (day 50, compared to the control) is “higher”. Further, in data set [2] (day 50, vs control group), the “WBC differential, individual cell types” value is “no difference”. The RBC indices entry in data set [2] (day 50, except for red cell distribution width (RDW)) was “largely demonstrate no effect”. The “expression of resistance-related genes (FTH1, RAB39B, HKDC1, FAM213A)” value in the data set on MDA-GSC20 was “increase in all four genes”. For the same compound, the “expression of resistance-related genes” value with MDA-GSC17 is listed as “not”; with MDA-GSC8-11, “increase in the same two gene”. Also, in the data set with MDA-GSC lines, the “concentrations at which MDA-GSC viability was reduced” value fell in the range of 250 to 750 µM.
